Earlier results as cited in patent US11559637B2, “Inhalers and related methods” (Norton (Waterford) Limited, priority 2017, dated 2023).

- surface tension (as liquid at 25° C.): about 8 mN/m
- vapor pressure (at 20° C.): 572 kpa
SMILES: FCC(F)(F)F [HFA134a, 1,1,1,2-tetrafluoroethane]
